Consider five molecules from ChEMBL document CHEMBL5634158, “From garden to lab: C-3 chemical modifications of tomatidine unveil broad-spectrum ATP synthase inhibitors to combat bacterial resistance” (Eur J Med Chem, 2023).

The test system of data set [1] is Escherichia coli. The experiment in a line: Antibacterial activity against Escherichia coli ATCC 25922 assessed as reduction in microbial growth incubated for 20 hrs under aerobic condition by CLSI based broth microdilution method. Format: functional. On the technique in general: In broth dilution the organism is exposed to a series of concentrations in liquid medium.

For data set [2], the system named is Escherichia coli. The experiment in a line: Antibacterial activity against Escherichia coli ATCC 25922 assessed as fold decrease in MIC for 20 hrs under aerobic condition by CLSI based broth microdilution method. Format: functional.
Data set [3] concerns Staphylococcus aureus. As to the kind of experiment: Antibacterial activity against Staphylococcus aureus ATCC 29213 assessed as reduction in microbial growth incubated for 20 hrs under aerobic condition by CLSI based broth microdilution method. Format: functional.
The subject of data set [4] is Staphylococcus aureus. As to the kind of experiment: Antibacterial activity against Staphylococcus aureus ATCC 29213 assessed as fold decrease in MIC incubated for 20 hrs under aerobic condition by CLSI based broth microdilution method. Format: functional.
Data set [5] has as its system Escherichia coli. As to the kind of experiment: Antibacterial activity against Escherichia coli MC4100 harbouring lptD mutant assessed as reduction in bacterial growth by CLSI based broth microdilution method. Format: functional.
The test system of data set [6] is Escherichia coli. The experiment in a line: Antibacterial activity against Escherichia coli MC4100 harbouring acrAB mutant assessed as reduction in bacterial growth by CLSI based broth microdilution method. Format: functional.
Data set [7] concerns Escherichia coli. As to the kind of experiment: Selectivity ratio of MIC for Escherichia coli MC4100 to MIC for Escherichia coli MC4100 harbouring acrAB mutant. Conditions: in vivo. The format is toxicity, organism-based.
Data set [8] is described as follows: Inhibition of Escherichia coli ATCC 25922 ATP synthase activity preincubated for 30 mins followed by NADH/ADP addition and measured after 60 mins by luciferin/luciferase luminescence assay.
Data set [9] concerns Escherichia coli. The experiment in a line: Antibacterial activity against Escherichia coli MC4100 assessed as reduction in bacterial growth by CLSI based broth microdilution method. The format is functional.
Data set [10] deals with Staphylococcus aureus. The experiment in a line: Antibacterial activity against Staphylococcus aureus ATCC 29213 hemB SCV assessed as reduction in microbial growth incubated for 20 hrs under aerobic condition by CLSI based broth microdilution method. The format is functional.
Data set [11] deals with Escherichia coli. The experiment in a line: Antibacterial activity against Escherichia coli producing extended spectrum beta-lactamase CTX-M-15 assessed as reduction in microbial growth incubated for 20 hrs under aerobic condition by CLSI based broth microdilution method. The format is functional.
Data set [12] deals with Staphylococcus aureus. The experiment in a line: Antibacterial activity against methicillin resistant Staphylococcus aureus ATCC 700699/Mu50 assessed as reduction in microbial growth incubated for 20 hrs under aerobic condition by CLSI based broth microdilution method. Format: functional.
Data set [13] deals with Escherichia coli. The experiment in a line: Antibacterial activity against Escherichia coli producing extended spectrum beta-lactamase KPC assessed as reduction in microbial growth incubated for 20 hrs under aerobic condition by CLSI based broth microdilution method. Format: functional.
The test system of data set [14] is Escherichia coli. As to the kind of experiment: Antibacterial activity against NDM1-producing carbapenem-resistant Escherichia coli ATCC BAA-2471 assessed as reduction in microbial growth incubated for 20 hrs under aerobic condition by CLSI based broth microdilution method. Format: functional.
The subject of data set [15] is Staphylococcus aureus. The experiment in a line: Antibacterial activity against methicillin resistant Staphylococcus aureus ATCC BAA-41/USA-100 assessed as reduction in microbial growth incubated for 20 hrs under aerobic condition by CLSI based broth microdilution method. Format: functional.
Data set [16] has as its system Escherichia coli. As to the kind of experiment: Antibacterial activity against colistin resistant Escherichia coli harboring mcr-1 gene assessed as reduction in microbial growth incubated for 20 hrs under aerobic condition by CLSI based broth microdilution method. Format: functional.
Data set [17] is described as follows: Inhibition of mitochondrial ATP synthase in human HepG2 cells preincubated for 30 mins followed by NADH/ADP addition and measured after 60 mins by luminescence assay. Format: cell-based.
The nature of data set [18]: Inhibition of Staphylococcus aureus ATCC 29213 ATP synthase activity preincubated for 30 mins followed by NADH/ADP addition and measured after 60 mins by luciferin/luciferase luminescence assay.
Data set [19] has as its system Staphylococcus aureus. As to the kind of experiment: Antibacterial activity against wild type Staphylococcus aureus ATCC 29213 assessed as reduction in microbial growth by CLSI based broth microdilution method. Format: functional.
The test system of data set [20] is Staphylococcus aureus. The experiment in a line: Antibacterial activity against Staphylococcus aureus ATCC 29213 SCV assessed as reduction in microbial growth by CLSI based broth microdilution method. Format: functional.
The subject of data set [21] is Staphylococcus aureus. As to the kind of experiment: microbe, parasite or virus in culture. Conditions: ATCC 700699/Mu50, 20 h.
Description: Antibacterial activity against antibiotic intermediately resitant/methicillin resistant Staphylococcus aureus ATCC 700699/Mu50 assessed as reduction in microbial growth incubated for 20 hrs under aerobic condition by CLSI based broth microdilution method

Structures are written as SMILES. In brackets after ≈: the same amount, converted by molar mass.

Consider `C[C@H]1CC[C@]2(NC1)O[C@H]1C[C@H]3[C@@H]4CC[C@H]5CC(NC[C@@H]6Cc7ccccc7CN6)CC[C@]5(C)[C@H]4CC[C@]3(C)[C@H]1[C@@H]2C` (mixture of isomers), for which the figures for the MIC in data set [1] and in data set [3] were over 128 µg/mL and 16 µg/mL, respectively. The “fold change (FC)” value in data set [2] and in data set [4] was 2 throughout.
As usually defined, the IC50 is the point on the concentration scale where inhibition reaches its midpoint. High values mean a need for much substance, low ones inhibition by little substance. As for `C[C@H]1CC[C@]2(NC1)O[C@H]1C[C@H]3[C@@H]4CC[C@H]5CC(NC[C@@H](N)Cc6ccc(O)cc6)CC[C@]5(C)[C@H]4CC[C@]3(C)[C@H]1[C@@H]2C` (mixture of isomers), the MIC in [5] was 8 µg/mL; in [1] it was 64 µg/mL; in data set [3], 8 µg/mL; in [6], 16 µg/mL; in [9], over 128 µg/mL; in data set [10], 0.25 µg/mL. The Selectivity ratio in [7] is recorded as over 8. In data set [8], this molecule registered an IC50 of 1.6 µM.
Take `C[C@H]1CC[C@]2(NC1)O[C@H]1C[C@H]3[C@@H]4CC[C@H]5CC(NC[C@@H](N)Cc6ccc(Cl)c(Cl)c6)CC[C@]5(C)[C@H]4CC[C@]3(C)[C@H]1[C@@H]2C` (mixture of isomers): the MIC in [5] is 2 µg/mL; in data set [1] it was 4 µg/mL; in data set [11], 4 µg/mL; in [12], 1 µg/mL; in data set [3] it was 1 µg/mL; in data set [13] it was 8 µg/mL. For the same molecule, the MIC is 4 µg/mL in data set [6]; 8 µg/mL in data set [14]; 2 µg/mL in data set [15]; 8 µg/mL in [16]; 8 µg/mL in [9]; 0.5 µg/mL in data set [10]. Besides, the IC50 in data set [17] was 13.9 µM; in [18], 0.83 µM; in data set [8], 1.95 µM.
For the molecule `C[C@H]1CC[C@]2(NC1)O[C@H]1C[C@H]3[C@@H]4CC[C@H]5C[C@@H](O)CC[C@]5(C)[C@H]4CC[C@]3(C)[C@H]1[C@@H]2C` [TOMATIDINE], the MIC in data set [1] is over 128 µg/mL; in data set [19], over 64 µg/mL; in data set [3], over 64 µg/mL; in data set [20], 0.06 µg/mL; in data set [10], 0.06 µg/mL.
As to `CN[C@H](CC(C)C)C(=O)N[C@H]1C(=O)N[C@@H](CC(N)=O)C(=O)N[C@H]2C(=O)N[C@H]3C(=O)N[C@H](C(=O)N[C@H](C(=O)O)c4cc(O)cc(O)c4-c4cc3ccc4O)[C@H](O)c3ccc(c(Cl)c3)Oc3cc2cc(c3O[C@@H]2O[C@H](CO)[C@@H](O)[C@H](O)[C@H]2O[C@H]2C[C@](C)(N)[C@H](O)[C@H](C)O2)Oc2ccc(cc2Cl)[C@H]1O` [VANCOMYCIN], the MIC in [21] turned out to be 8 µg/mL (≈ 5.52 µM).
